Measured values published in publication PMC6271349, “Synthesis and Biological Evaluation of 2-Phenoxyacetamide Analogues, a Novel Class of Potent and Selective Monoamine Oxidase Inhibitors” (Molecules, 2014).
Read-outs that look alike come from different tables or passages of the source.

Legend:
Type in all cases: biochemical
[1] = biological target: T1, Human recombinant Monoamine Oxidase B (Homo sapiens, UniProt P27338); assay: MAOs inhibitory assay (fluorescence-based microplate), MAO-B; details: recombinant enzyme; inhibitor incubated 37 °C 3 h, borate buffer pH 8.4; mean IC50
T1 construct: purchased Sigma Aldrich M7441
T1 sequence (P27338 1-520): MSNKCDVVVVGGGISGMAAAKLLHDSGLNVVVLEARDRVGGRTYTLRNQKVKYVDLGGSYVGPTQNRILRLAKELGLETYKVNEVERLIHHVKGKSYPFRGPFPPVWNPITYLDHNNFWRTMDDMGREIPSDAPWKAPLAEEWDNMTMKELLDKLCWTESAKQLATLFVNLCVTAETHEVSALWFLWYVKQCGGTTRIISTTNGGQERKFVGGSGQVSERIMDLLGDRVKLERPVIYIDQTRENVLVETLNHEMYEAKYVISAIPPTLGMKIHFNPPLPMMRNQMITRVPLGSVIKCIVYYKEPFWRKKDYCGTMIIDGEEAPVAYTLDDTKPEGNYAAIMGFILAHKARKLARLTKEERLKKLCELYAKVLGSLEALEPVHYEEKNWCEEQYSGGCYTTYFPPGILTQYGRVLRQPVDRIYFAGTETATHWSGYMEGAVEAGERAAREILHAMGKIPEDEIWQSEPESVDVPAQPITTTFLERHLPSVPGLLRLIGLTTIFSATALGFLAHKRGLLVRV
Protocol: (§1) All of these compounds were evaluated for their inhibitory abilities towards MAOs. The inhibition activities against MAO-A and MAO-B of the synthesized compounds were investigated by our reported method.
(§2) Silica gel (100–200 mesh, Qingdao Haiyang Chemical Co., Qingdao, China) was used for flash column chromatography. Analytical thin-layer chromatography was performed with GF254 silica gel. ^1H-NMR spectra were recorded on a Bruker Avance 300 MHz apparatus. HR-ESI-MS and HR-EI analysis were measured on a Bruker micrOTOF-QII and Waters GCT Premier GC-TOF-MS spectrometer, respectively. All chemicals were purchased from the Eastern China Chemical Co (Hangzhou, China). All fluorescent data was recorded on Spectrum M2 (Molecular Device Company). Human recombinant Monoamine Oxidase A (M7316) and B (M7441) (5 mg/mL) were purchased from Sigma Aldrich. Pierce BCA protein assay kit (23227) was purchased from Thermo Scientific.
(§3) MAO IC50 values were determined using our reported fluorescence-based microplate assay. […] The fluorescent signals were measured at λex 360 nm and λem 460 nm on a Spectrum-M2 spectrofluorometer.

[2] = biological target: T2, Human recombinant Monoamine Oxidase A (Homo sapiens, UniProt P21397); assay: MAOs inhibitory assay (fluorescence-based microplate), MAO-A; details: for SI (selectivity index): SI = (IC50 of MAO-B)/(IC50 of MAO-A); for IC50: recombinant enzyme
T2 construct: purchased Sigma Aldrich M7316
T2 sequence (P21397 1-527): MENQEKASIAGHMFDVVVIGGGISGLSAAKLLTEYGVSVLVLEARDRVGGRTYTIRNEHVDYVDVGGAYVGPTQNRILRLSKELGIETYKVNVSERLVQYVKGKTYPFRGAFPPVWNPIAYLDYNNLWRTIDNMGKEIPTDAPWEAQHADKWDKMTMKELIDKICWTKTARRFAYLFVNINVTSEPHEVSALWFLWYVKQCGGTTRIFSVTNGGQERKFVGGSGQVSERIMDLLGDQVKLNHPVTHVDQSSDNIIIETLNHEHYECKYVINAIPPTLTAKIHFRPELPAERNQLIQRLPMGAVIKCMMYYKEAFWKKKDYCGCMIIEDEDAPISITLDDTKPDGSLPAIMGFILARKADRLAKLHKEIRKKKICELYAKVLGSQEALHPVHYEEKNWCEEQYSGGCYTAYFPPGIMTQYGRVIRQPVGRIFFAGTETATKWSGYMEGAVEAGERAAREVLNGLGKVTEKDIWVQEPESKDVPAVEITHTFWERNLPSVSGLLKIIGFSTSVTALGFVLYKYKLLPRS
Protocol: as §1, §2, §3

MAO-B = biological target: T3, MAO-B (Homo sapiens, UniProt P27338); assay: Reversibility of MAO-B inhibition (repeated washing method); details: for inhibition at 0.1 µM: inhibitor 100 nM; for reversibility of MAO-B inhibition: repeated washing method
T3 construct: purchased Sigma Aldrich M7441
T3 sequence (P27338 1-520): T1 sequence (P27338 1-520)
Protocol: (§4) Reversibility of the MAO inhibition with derivatives of acetamides was evaluated by a reported method. […] After incubating for 2 h, an aliquot was stored at 4 °C for the measurement of MAO-A and -B activity. The remaining reaction solution was placed in an Ultrafree-0.5 centrifugal tube with a 30 kDa Biomax membrane (Millipore) and centrifuged at 9000 g for 20 min at 4 °C. The enzyme retained in the membrane was resuspended in a sodium phosphate buffer and centrifuged two successive times. Then, the enzyme retained in the membrane was resuspended in PBS ([…]) and an aliquot of this suspension was used for MAO-A and -B activity measurement. In order to define 100% MAO activity, control experiments were performed simultaneously by replacing the inhibitors with appropriate dilutions of the vehicles. The corresponding values of percent MAO isoforms inhibition (with and without repeated washing) were calculated based on the control experiments.

MAO-A = biological target: T4, MAO-A (Homo sapiens, UniProt P21397); assay: Reversibility of MAO-A inhibition (repeated washing method); details: for inhibition at 0.1 µM: inhibitor 100 nM; for reversibility of MAO-A inhibition: repeated washing method
T4 construct: purchased Sigma Aldrich M7316
T4 sequence (P21397 1-527): T2 sequence (P21397 1-527)
Protocol: as §4

[3] = biological target: T5, native MAO-A in SH-SY5Y (neuroblastoma cells) lysate (Homo sapiens, UniProt P21397); assay: MAO inhibitory activity in SH-SY5Y cell lysate (endogenous MAO-A); details: for IC50: SH-SY5Y lysate (only endogenous MAO-A activity), repeated three times; for times more potent in SH-SY5Y lysate relative to HepG2 lysate: ratio of lysate IC50 values (HepG2/SH-SY5Y)
T5 construct: endogenous in cells; host or cells: SH-SY5Y (neuroblastoma cells) lysate
T5 sequence (P21397 1-527): T2 sequence (P21397 1-527)
Protocol: (§5) Compounds 12, 21, 22, 25 were chosen for comparison due to their excellent inhibitory activities, and the results were shown in Table 2. […] This is most likely due to the instability of imine group in cell lysates.
as §3
(§6) Cells were cultured at 37 °C and 5% CO2 in RPMI-1640 media containing 100 units/mL penicillin, 100 μg/mL streptomycin, and 10% FBS. For lysis, cells were resuspended at 5 × 10^7 cells/mL in lysis buffer (42.3 mM PBS, 126 mM NaCl, 1.27 mM MgCl2, 0.85 mM EDTA, 1 mM PMSF, 0.95% Triton X-100, 9.5% glycerol, 4% 25× complete protease inhibitor, pH 7.4). The cells were vortexed to mix and keep on ice for 30 min, and then sonicated to break the cells (180 watts). The cell lysate was then clarified by ultracentrifugation at 4 °C for 30 min at 45,000. Total protein concentration was determined via a Bradford Protein Assay Kit (Bio-Rad) and cell lysates were stored at −80 °C until further use.

[4] = biological target: T6, native MAO-B in HepG2 (human hepatocellular liver carcinoma cell) lysate (Homo sapiens, UniProt P27338); assay: MAO inhibitory activity in HepG2 cell lysate (endogenous MAO-B); details: HepG2 lysate (only endogenous MAO-B activity); repeated three times
T6 construct: endogenous in cells; host or cells: HepG2 (human hepatocellular liver carcinoma cell) lysate
T6 sequence (P27338 1-520): T1 sequence (P27338 1-520)
Protocol: as §5, §3, §6

[5] = inhibitor incubated 37 °C 3 h, borate buffer pH 8.4, mean IC50, read-out: IC50 (μM) MAO-A
[6] = after repeated washing, read-out: MAO-A Inhibiton (%) After Washing
[7] = before washing, read-out: MAO-A Inhibiton (%) Before Washing

| SMILES | IC50 [1] [µM] | SI (selectivity index) [2] | IC50 [2, 5] [µM] | further results |
| --- | --- | --- | --- | --- |
| NC(=O)COc1ccccc1 [Compound 1] | 778 | 11.27 | 69 |  |
| NC(=O)COc1ccccc1Cl [Compound 5] | 694 | 7.08 | 98 |  |
| Cc1ccccc1OCC(N)=O [Compound 9] | 663 | 25.5 | 26 |  |
| COc1ccc(OCC(N)=O)cc1 [Compound 12, 2-(4-Methoxyphenoxy)acetamide] | 980 | 245 | 4 | enzyme activity recovered after repeated washing (MAO-B) (MAO-B; after repeated washing): more than 80%; inhibition at 0.1 µM (MAO-B; after repeated washing, read-out: MAO-B Inhibiton (%) After Washing): 8.6%; inhibition at 0.1 µM (MAO-B; before washing, read-out: MAO-B Inhibiton (%) Before Washing): 96.9%; reversibility of MAO-B inhibition (MAO-B): reversible; enzyme activity recovered after repeated washing (MAO-A) (MAO-A; after repeated washing): more than 80%; inhibition at 0.1 µM (MAO-A; [6]): 12.5%; inhibition at 0.1 µM (MAO-A; [7]): 88.7%; reversibility of MAO-A inhibition (MAO-A): reversible; IC50 [3]: 5.4 µM |
| NC(=O)CSc1ccccc1 [Compound 17] | 642 | 3.87 | 166 |  |
| NC(=O)COc1ccc(C=NCc2ccccc2)cc1 [Compound 23] | 575 | 5.99 | 96 |  |
| NC(=O)COc1ccccc1C1=NCCN1 [Compound 20] | 714 | 3.84 | 186 |  |
| CC(=O)Nc1ccc(OCC(N)=O)cc1 [Compound 16] | 553 | 9.07 | 61 |  |
| NC(=O)COc1ccccc1C=O [Compound 7] | 559 | 3.94 | 142 |  |
| C[C@H](NCc1ccc(OCc2cccc(F)c2)cc1)C(N)=O [Safinamide, reference compound] |  |  |  | enzyme activity recovered after repeated washing (MAO-B) (MAO-B; after repeated washing): more than 80%; reversibility of MAO-B inhibition (MAO-B): reversible; enzyme activity recovered after repeated washing (MAO-A) (MAO-A; after repeated washing): more than 80%; inhibition at 0.1 µM (MAO-A; [6]): 9.8%; inhibition at 0.1 µM (MAO-A; [7]): 36.1%; reversibility of MAO-A inhibition (MAO-A): reversible |
| COc1ccccc1OCC(N)=O [Compound 11] | 775 | 8.07 | 96 |  |

More lines, in order of falling IC50 [1], values ahead:

| IC50 [1] [µM] | SI (selectivity index) [2] | IC50 [2, 5] [µM] | SMILES | further results |
| --- | --- | --- | --- | --- |
| 542 | 3.64 | 149 | NC(=O)COc1ccc2ccccc2c1 [Compound 2] |  |
| 541 | 180 | 3 | Cc1ccc(OCC(N)=O)cc1 [Compound 10] |  |
| 534 | 4.73 | 113 | Cc1ccc(OCC(N)=O)cc1C [Compound 8] |  |
| 506 | 8.30 | 61 | NC(=O)COc1ccc(C2=NCCN2)cc1 [Compound 19] |  |
| 457 | 5.13 | 89 | NC(=O)COc1ccc(C=O)cc1 [Compound 6] |  |
| 366 |  | 292 | Cc1ccc(SCC(N)=O)cc1C [Compound 18] |  |
| 296 | 1.51 | 196 | CC(C)(C)OC(=O)Nc1ccc(OCC(N)=O)cc1 [Compound 15] |  |
| 255 | 2.77 | 92 | NC(=O)COc1ccc(F)cc1 [Compound 3] |  |
| 202 | 0.41 | 490 | NC(=O)COc1ccc(Cl)cc1 [Compound 4] |  |
| 177 | 0.82 | 217 | NC(=O)COc1ccccc1C(=O)O [Compound 13] |  |
| 98 | 0.91 | 108 | COC(=O)c1ccccc1OCC(N)=O [Compound 14] |  |
| 0.176 | 2.59 | 0.068 | C#CCN=Cc1ccccc1OCC(N)=O [Compound 25] | IC50 [4]: 1.81 µM; IC50 [3]: 0.88 µM; times more potent in SH-SY5Y lysate relative to HepG2 lysate [3]: 2.1 times |
| 0.076 | 4.22 |  | C#CCN=Cc1ccc(OCC(N)=O)cc1 [Compound 21, 2-(4-((prop-2-ynylimino)methyl)phenoxy)acetamide] | IC50 [4]: 0.41 µM; IC50 ([2]; read-out: IC50 value (MAO-A)): 0.018 µM; IC50 [3]: 0.18 µM; times more potent in SH-SY5Y lysate relative to HepG2 lysate [3]: 2.3 times |
